Columns and labels:
Type in all cases: in vivo
[1] = tested on: barnyardgrass (Echinochloa crus-galli); test: Test A pre-/postemergence plant response
Summary of the method: (§1)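 Visually rated 0–100 injury (100 = complete control) versus untreated plants, ~10 days in greenhouse. Application pre- (soil spray, loam/sand) and postemergence (2–10 cm, 1–2 leaf stage), same timepoint.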

corn (Zea mays) = test: Test A pre-/postemergence plant response
Summary of the method: as §1

[2] = tested on: giant foxtail (Setaria faberii); test: Test A pre-/postemergence plant response
Summary of the method: as §1

[3] = tested on: large crabgrass (Digitaria sanguinalis); test: Test A pre-/postemergence plant response
Summary of the method: as §1

[4] = tested on: velvetleaf (Abutilon theophrasti); test: Test A pre-/postemergence plant response
Summary of the method: as §1

[5] = tested on: wheat (Triticum aestivum); test: Test A pre-/postemergence plant response
Summary of the method: as §1

[6] = tested on: canarygrass (Phalaris minor); test: Test B postemergence plant response; settings: for Plant response rating, Canarygrass: Postemergence
Summary of the method: (§2)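 Plants at the 1- to 4-leaf stage (2 to 18 cm tall), grown in pots of peat moss/vermiculite medium with wetting agent and starter nutrients, received postemergence applications of test chemicals. After 13 to 15 days in a greenhouse, injury was rated visually against untreated controls on a 0 (no effect) to 100 (complete control) scale.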

[7] = tested on: chickweed (Stellaria media); test: Test B postemergence plant response; settings: for Plant response rating, Chickweed: Postemergence
Summary of the method: as §2

[8] = tested on: windgrass (Apera spica-venti); test: Test B postemergence plant response; settings: for Plant response rating, Windgrass: Postemergence
Summary of the method: as §2

[9] = tested on: winter barley (Hordeum vulgare); test: Test B postemergence plant response; settings: for Barley plant response rating (0 to 100 scale): postemergence, 0 is no effect, 100 is complete control; for Plant response rating, Barley: Postemergence
Summary of the method: as §2

[10] = Postemergence, 125 g ai/ha, 0 to 100 scale where 0 is no effect and 100 is complete control
[11] = Postemergence, 500 g ai/ha, 0 to 100 scale, 0 = no effect, 100 = complete control, approx. ten days
[12] = Preemergence, 125 g ai/ha, 0 to 100 scale, 0 = no effect, 100 = complete control
[13] = Preemergence, 500 g ai/ha, visual injury, 0 to 100 scale (0 no effect, 100 complete control), approx. ten days
[14] = 62 g ai/ha, postemergence, 0 is no effect, 100 is complete control, 13 to 15 days
[15] = 31 g ai/ha, 0 to 100 scale (0 no effect, 100 complete control)
[16] = 125 g ai/ha, scale 0 to 100 (0 no effect, 100 complete control)
[17] = 250 g ai/ha, scale 0 to 100 (0 no effect, 100 complete control), 13 to 15 days
[18] = Postemergence, 500 g ai/ha, visual injury, 0 to 100 scale (0 no effect, 100 complete control), approx. ten days
[19] = Preemergence, 500 g ai/ha, 0 to 100 scale, 0 = no effect, 100 = complete control
[20] = 62 g ai/ha, scale 0 to 100 (0 no effect, 100 complete control)

SMILES: O=C1CCCC(O)=C1C(=O)c1cnc(-c2ccccc2)n(C2CCCCCC2)c1=O [Compound 130]
- Plant response rating, Barnyardgrass [1, 10]: 100
- Plant response rating, Barnyardgrass [1, 11]: 100
- Plant response rating, Barnyardgrass [1, 12]: 20
- Plant response rating, Barnyardgrass [1, 13]: 90
- Plant response rating, Corn (corn (Zea mays); [10]): 10
- Plant response rating, Corn (corn (Zea mays); [11]): 50
- Plant response rating, Corn (corn (Zea mays); [12]): 20
- Plant response rating, Corn (corn (Zea mays); [13]): 30
- Plant response rating, Foxtail, Giant [2, 10]: 80
- Plant response rating, Foxtail, Giant [2, 11]: 90
- Plant response rating, Foxtail, Giant [2, 12]: 20
- Plant response rating, Foxtail, Giant [2, 13]: 90
- Plant response rating, Crabgrass, Large [3, 10]: 70
- Plant response rating, Crabgrass, Large [3, 11]: 100
- Plant response rating, Crabgrass, Large [3, 12]: 40
- Plant response rating, Crabgrass, Large [3, 13]: 100
- Plant response rating, Velvetleaf [4, 10]: 100
- Plant response rating, Velvetleaf [4, 11]: 100
- Plant response rating, Velvetleaf [4, 12]: 80
- Plant response rating, Velvetleaf [4, 13]: 90
- Plant response rating, Wheat [5, 10]: 0
- Plant response rating, Wheat [5, 11]: 30
- Plant response rating, Wheat [5, 12]: 0
- Plant response rating, Wheat [5, 13]: 0
- Canarygrass plant response rating (0 to 100 scale) [6, 14]: 20
- Plant response rating, Canarygrass [6, 15]: 5
- Plant response rating, Canarygrass [6, 16]: 20
- Plant response rating, Canarygrass [6, 17]: 25
- Chickweed plant response rating (0 to 100 scale) [7, 14]: 98
- Plant response rating, Chickweed [7, 15]: 98
- Plant response rating, Chickweed [7, 16]: 100
- Plant response rating, Chickweed [7, 17]: 100
- Windgrass plant response rating (0 to 100 scale) [8, 14]: 65
- Plant response rating, Windgrass [8, 15]: 60
- Plant response rating, Windgrass [8, 16]: 75
- Plant response rating, Windgrass [8, 17]: 85
- Barley plant response rating (0 to 100 scale) ([9]; 62 g ai/ha, 13 to 15 days): 0
- Plant response rating, Barley [9, 15]: 0
- Plant response rating, Barley [9, 16]: 0
- Plant response rating, Barley [9, 17]: 0

SMILES: O=C1CCCC(O)=C1C(=O)c1cnc(C2CC2)n(C2CCCCC2)c1=O [Compound 160]
- Plant response rating, Barnyardgrass [1, 10]: 90
- Barnyardgrass plant response rating [1, 18]: 100
- Plant response rating, Barnyardgrass [1, 12]: 40
- Plant response rating, Barnyardgrass [1, 19]: 80
- Plant response rating, Corn (corn (Zea mays); [10]): 20
- Corn plant response rating (corn (Zea mays); [18]): 60
- Plant response rating, Corn (corn (Zea mays); [12]): 0
- Plant response rating, Corn (corn (Zea mays); [19]): 20
- Plant response rating, Foxtail, Giant [2, 10]: 70
- Foxtail, Giant plant response rating [2, 18]: 80
- Plant response rating, Foxtail, Giant [2, 12]: 20
- Plant response rating, Foxtail, Giant [2, 19]: 70
- Plant response rating, Crabgrass, Large [3, 10]: 90
- Crabgrass, Large plant response rating [3, 18]: 90
- Plant response rating, Crabgrass, Large [3, 12]: 80
- Plant response rating, Crabgrass, Large [3, 19]: 100
- Plant response rating, Velvetleaf [4, 10]: 100
- Velvetleaf plant response rating [4, 18]: 100
- Plant response rating, Velvetleaf [4, 12]: 60
- Plant response rating, Velvetleaf [4, 19]: 30
- Plant response rating, Wheat [5, 10]: 0
- Wheat plant response rating [5, 18]: 50
- Plant response rating, Wheat [5, 12]: 0
- Plant response rating, Wheat [5, 19]: 20
- Plant response rating, Canarygrass [6, 15]: 5
- Plant response rating, Canarygrass [6, 16]: 20
- Plant response rating, Canarygrass [6, 17]: 35
- Plant response rating, Chickweed [7, 15]: 85
- Plant response rating, Chickweed [7, 16]: 95
- Plant response rating, Chickweed [7, 17]: 100
- Plant response rating, Windgrass [8, 15]: 20
- Plant response rating, Windgrass [8, 16]: 60
- Plant response rating, Windgrass [8, 17]: 80
- Barley plant response rating (0 to 100 scale) ([9]; 62 g ai/ha, 13 to 15 days): 30
- Plant response rating, Barley [9, 15]: 5
- Plant response rating, Barley [9, 16]: 35
- Plant response rating, Barley [9, 17]: 50

SMILES: Cc1ccc(-n2c(-c3cc(F)cc(F)c3)ncc(C(=O)C3=C(O)CCCC3=O)c2=O)cc1 [Compound 162]
- Plant response rating, Barnyardgrass [1, 10]: 100
- Barnyardgrass plant response rating [1, 18]: 100
- Plant response rating, Barnyardgrass [1, 12]: 10
- Plant response rating, Barnyardgrass [1, 19]: 100
- Plant response rating, Corn (corn (Zea mays); [10]): 0
- Corn plant response rating (corn (Zea mays); [18]): 50
- Plant response rating, Corn (corn (Zea mays); [12]): 0
- Plant response rating, Corn (corn (Zea mays); [19]): 0
- Plant response rating, Foxtail, Giant [2, 10]: 70
- Foxtail, Giant plant response rating [2, 18]: 100
- Plant response rating, Foxtail, Giant [2, 12]: 30
- Plant response rating, Foxtail, Giant [2, 19]: 90
- Plant response rating, Crabgrass, Large [3, 10]: 80
- Crabgrass, Large plant response rating [3, 18]: 100
- Plant response rating, Crabgrass, Large [3, 12]: 90
- Plant response rating, Crabgrass, Large [3, 19]: 100
- Plant response rating, Velvetleaf [4, 10]: 100
- Velvetleaf plant response rating [4, 18]: 100
- Plant response rating, Velvetleaf [4, 12]: 60
- Plant response rating, Velvetleaf [4, 19]: 100
- Plant response rating, Wheat [5, 10]: 30
- Wheat plant response rating [5, 18]: 50
- Plant response rating, Wheat [5, 12]: 0
- Plant response rating, Wheat [5, 19]: 50
- Plant response rating, Canarygrass [6, 15]: 40
- Plant response rating, Canarygrass [6, 16]: 90
- Plant response rating, Canarygrass [6, 17]: 90
- Plant response rating, Chickweed [7, 15]: 90
- Plant response rating, Chickweed [7, 16]: 100
- Plant response rating, Chickweed [7, 17]: 100
- Plant response rating, Windgrass [8, 15]: 40
- Plant response rating, Windgrass [8, 16]: 60
- Plant response rating, Windgrass [8, 17]: 80
- Barley plant response rating (0 to 100 scale) ([9]; 62 g ai/ha, 13 to 15 days): 35
- Plant response rating, Barley [9, 15]: 30
- Plant response rating, Barley [9, 16]: 50
- Plant response rating, Barley [9, 17]: 85

SMILES: CCCn1c(-c2cc(Cl)cc(Cl)c2)ncc(C(=O)C2=C(O)CCCC2=O)c1=O [Compound 173]
- Plant response rating, Barnyardgrass [1, 10]: 90
- Barnyardgrass plant response rating [1, 18]: 100
- Plant response rating, Barnyardgrass [1, 12]: 0
- Plant response rating, Barnyardgrass [1, 19]: 60
- Plant response rating, Corn (corn (Zea mays); [10]): 0
- Corn plant response rating (corn (Zea mays); [18]): 20
- Plant response rating, Corn (corn (Zea mays); [12]): 0
- Plant response rating, Corn (corn (Zea mays); [19]): 10
- Plant response rating, Foxtail, Giant [2, 10]: 70
- Foxtail, Giant plant response rating [2, 18]: 90
- Plant response rating, Foxtail, Giant [2, 12]: 20
- Plant response rating, Foxtail, Giant [2, 19]: 40
- Plant response rating, Crabgrass, Large [3, 10]: 70
- Crabgrass, Large plant response rating [3, 18]: 90
- Plant response rating, Crabgrass, Large [3, 12]: 40
- Plant response rating, Crabgrass, Large [3, 19]: 100
- Plant response rating, Velvetleaf [4, 10]: 100
- Velvetleaf plant response rating [4, 18]: 100
- Plant response rating, Velvetleaf [4, 12]: 70
- Plant response rating, Velvetleaf [4, 19]: 100
- Plant response rating, Wheat [5, 10]: 0
- Wheat plant response rating [5, 18]: 60
- Plant response rating, Wheat [5, 12]: 0
- Plant response rating, Wheat [5, 19]: 20
- Plant response rating, Canarygrass [6, 15]: 10
- Plant response rating, Canarygrass [6, 16]: 40
- Plant response rating, Canarygrass [6, 17]: 80
- Plant response rating, Chickweed [7, 15]: 65
- Plant response rating, Chickweed [7, 16]: 100
- Plant response rating, Chickweed [7, 17]: 100
- Plant response rating, Windgrass [8, 15]: 30
- Plant response rating, Windgrass [8, 16]: 70
- Plant response rating, Windgrass [8, 17]: 75
- Barley plant response rating (0 to 100 scale) ([9]; 62 g ai/ha, 13 to 15 days): 20
- Plant response rating, Barley [9, 15]: 5
- Plant response rating, Barley [9, 16]: 35
- Plant response rating, Barley [9, 17]: 50

SMILES: CCCn1c(-c2ccccc2)ncc(C(=O)C2=C(O)C3CCC(C3)C2=O)c1=O (stereo not shown) [Compound 226]
- Plant response rating, Barnyardgrass [1, 10]: 90
- Barnyardgrass plant response rating [1, 18]: 90
- Plant response rating, Barnyardgrass [1, 12]: 30
- Plant response rating, Barnyardgrass [1, 19]: 100
- Plant response rating, Corn (corn (Zea mays); [10]): 10
- Corn plant response rating (corn (Zea mays); [18]): 60
- Plant response rating, Corn (corn (Zea mays); [12]): 0
- Plant response rating, Corn (corn (Zea mays); [19]): 0
- Plant response rating, Foxtail, Giant [2, 10]: 90
- Foxtail, Giant plant response rating [2, 18]: 90
- Plant response rating, Foxtail, Giant [2, 12]: 70
- Plant response rating, Foxtail, Giant [2, 19]: 90
- Plant response rating, Crabgrass, Large [3, 10]: 90
- Crabgrass, Large plant response rating [3, 18]: 100
- Plant response rating, Crabgrass, Large [3, 12]: 90
- Plant response rating, Crabgrass, Large [3, 19]: 100
- Plant response rating, Velvetleaf [4, 10]: 100
- Velvetleaf plant response rating [4, 18]: 100
- Plant response rating, Velvetleaf [4, 12]: 80
- Plant response rating, Velvetleaf [4, 19]: 100
- Plant response rating, Wheat [5, 10]: 0
- Wheat plant response rating [5, 18]: 50
- Plant response rating, Wheat [5, 12]: 0
- Plant response rating, Wheat [5, 19]: 10
- Plant response rating, Canarygrass [6, 15]: 5
- Plant response rating, Canarygrass [6, 16]: 50
- Plant response rating, Canarygrass [6, 17]: 60
- Plant response rating, Canarygrass [6, 20]: 30
- Plant response rating, Chickweed [7, 15]: 75
- Plant response rating, Chickweed [7, 16]: 85
- Plant response rating, Chickweed [7, 17]: 95
- Plant response rating, Chickweed [7, 20]: 75
- Plant response rating, Windgrass [8, 15]: 10
- Plant response rating, Windgrass [8, 17]: 85
- Plant response rating, Windgrass [8, 20]: 50
- Plant response rating, Barley [9, 15]: 10
- Plant response rating, Barley [9, 16]: 30
- Plant response rating, Barley [9, 17]: 60
- Plant response rating, Barley [9, 20]: 30

From patent US8952024B2, “Herbicidal pyrimidone derivatives” (E I du Pont de Nemours and Company, priority 2009, dated 2015)
